Source: article PMC8371461 (Frontiers in Pharmacology, 2021)

Assays:
[1] = target: T1, ANKK1 (Homo sapiens, UniProt Q8NFD2); assay: kinome scan; format: binding
T1 construct: purchased DiscoverX (KINOMEscan)
T1 sequence (Q8NFD2 1-765): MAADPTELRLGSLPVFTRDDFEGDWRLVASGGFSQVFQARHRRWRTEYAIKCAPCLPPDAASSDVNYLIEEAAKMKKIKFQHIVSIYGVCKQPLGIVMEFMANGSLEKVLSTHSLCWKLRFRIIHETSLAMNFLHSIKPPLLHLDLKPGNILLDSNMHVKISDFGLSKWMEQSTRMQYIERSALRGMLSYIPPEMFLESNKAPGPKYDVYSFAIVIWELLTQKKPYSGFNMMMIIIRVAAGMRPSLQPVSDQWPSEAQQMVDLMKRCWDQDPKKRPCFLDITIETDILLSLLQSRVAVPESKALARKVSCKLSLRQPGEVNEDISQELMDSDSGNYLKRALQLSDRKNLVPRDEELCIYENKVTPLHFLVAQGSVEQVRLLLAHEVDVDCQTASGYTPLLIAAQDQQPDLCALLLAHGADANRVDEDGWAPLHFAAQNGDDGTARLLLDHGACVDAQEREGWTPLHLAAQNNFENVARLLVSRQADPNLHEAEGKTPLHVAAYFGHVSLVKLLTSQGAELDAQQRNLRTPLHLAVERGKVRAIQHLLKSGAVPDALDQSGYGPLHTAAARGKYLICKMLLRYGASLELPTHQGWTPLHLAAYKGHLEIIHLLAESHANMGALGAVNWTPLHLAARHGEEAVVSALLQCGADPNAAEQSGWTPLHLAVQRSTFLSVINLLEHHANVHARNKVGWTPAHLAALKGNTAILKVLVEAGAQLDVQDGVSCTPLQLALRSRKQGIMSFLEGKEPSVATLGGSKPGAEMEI

[2] = target: T2, BMPR1A (Homo sapiens, UniProt P36894); assay: kinome scan; format: binding; conditions: 10 µM
T2 construct: purchased DiscoverX (KINOMEscan)

[3] = target: T3, CDKL2 (Homo sapiens, UniProt Q92772); assay: kinome scan; format: binding; conditions: 10 µM
T3 construct: purchased DiscoverX (KINOMEscan)

[4] = target: T4, CHEK2 (Homo sapiens, UniProt O96017); assay: kinome scan; format: binding; conditions: 10 µM
T4 construct: purchased DiscoverX (KINOMEscan)

[5] = target: T5, DAPK3 (Homo sapiens, UniProt O43293); assay: kinome scan; format: binding; conditions: 10 µM
T5 construct: purchased DiscoverX (KINOMEscan)

[6] = target: T6, DYRK1B (Homo sapiens, UniProt Q9Y463); assay: kinome scan; format: binding; conditions: 10 µM
T6 construct: purchased DiscoverX (KINOMEscan)

[7] = target: T7, EPHA8 (Homo sapiens, UniProt P29322); assay: kinome scan; format: binding; conditions: 10 µM
T7 construct: purchased DiscoverX (KINOMEscan)

[8] = target: T8, FGFR2 (Homo sapiens, UniProt P21802); assay: kinome scan; format: binding; conditions: 10 µM
T8 construct: purchased DiscoverX (KINOMEscan)

[9] = target: FLT3(ITD); assay: kinome scan; format: binding, human; conditions: 10 µM
[10] = target: T9, FLT3(K663Q) (Homo sapiens, UniProt P36888, K663Q); assay: kinome scan; format: binding
T9 construct: purchased DiscoverX (KINOMEscan)

[11] = target: T10, FLT4 (Homo sapiens, UniProt P35916); assay: kinome scan; format: binding; conditions: 10 µM
T10 construct: purchased DiscoverX (KINOMEscan)

[12] = target: T11, FRK (Homo sapiens, UniProt P42685); assay: kinome scan; format: binding; conditions: 10 µM
T11 construct: purchased DiscoverX (KINOMEscan)
T11 sequence (P42685 whole entry): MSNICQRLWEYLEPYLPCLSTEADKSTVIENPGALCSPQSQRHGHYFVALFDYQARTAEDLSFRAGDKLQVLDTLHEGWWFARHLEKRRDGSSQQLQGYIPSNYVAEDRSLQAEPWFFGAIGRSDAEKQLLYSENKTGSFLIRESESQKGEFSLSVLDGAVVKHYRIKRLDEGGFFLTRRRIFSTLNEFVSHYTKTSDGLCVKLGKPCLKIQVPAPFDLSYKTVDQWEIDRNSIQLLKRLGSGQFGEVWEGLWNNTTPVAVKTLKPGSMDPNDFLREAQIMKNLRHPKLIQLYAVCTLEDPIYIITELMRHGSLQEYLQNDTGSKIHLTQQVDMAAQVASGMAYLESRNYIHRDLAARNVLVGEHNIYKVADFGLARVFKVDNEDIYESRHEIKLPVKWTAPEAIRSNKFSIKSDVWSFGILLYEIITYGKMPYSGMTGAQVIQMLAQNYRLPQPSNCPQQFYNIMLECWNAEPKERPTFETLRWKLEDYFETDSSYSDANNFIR

[13] = target: T12, GCN2(Kin.Dom.2S808G) (Homo sapiens, UniProt Q9P2K8, S808G); assay: kinome scan; format: binding; conditions: 10 µM
T12 construct: GCN2(Kin.Dom.2S808G); purchased DiscoverX (KINOMEscan)

[14] = target: T13, GRK1 (Homo sapiens, UniProt Q15835); assay: kinome scan; format: binding; conditions: 10 µM
T13 construct: purchased DiscoverX (KINOMEscan)

[15] = target: T14, ITK (Homo sapiens, UniProt Q08881); assay: kinome scan; format: binding; conditions: 10 µM
T14 construct: purchased DiscoverX (KINOMEscan)

[16] = target: T15, MAP4K3 (Homo sapiens, UniProt Q8IVH8); assay: kinome scan; format: binding; conditions: 10 µM
T15 construct: purchased DiscoverX (KINOMEscan)
T15 sequence (Q8IVH8 whole entry): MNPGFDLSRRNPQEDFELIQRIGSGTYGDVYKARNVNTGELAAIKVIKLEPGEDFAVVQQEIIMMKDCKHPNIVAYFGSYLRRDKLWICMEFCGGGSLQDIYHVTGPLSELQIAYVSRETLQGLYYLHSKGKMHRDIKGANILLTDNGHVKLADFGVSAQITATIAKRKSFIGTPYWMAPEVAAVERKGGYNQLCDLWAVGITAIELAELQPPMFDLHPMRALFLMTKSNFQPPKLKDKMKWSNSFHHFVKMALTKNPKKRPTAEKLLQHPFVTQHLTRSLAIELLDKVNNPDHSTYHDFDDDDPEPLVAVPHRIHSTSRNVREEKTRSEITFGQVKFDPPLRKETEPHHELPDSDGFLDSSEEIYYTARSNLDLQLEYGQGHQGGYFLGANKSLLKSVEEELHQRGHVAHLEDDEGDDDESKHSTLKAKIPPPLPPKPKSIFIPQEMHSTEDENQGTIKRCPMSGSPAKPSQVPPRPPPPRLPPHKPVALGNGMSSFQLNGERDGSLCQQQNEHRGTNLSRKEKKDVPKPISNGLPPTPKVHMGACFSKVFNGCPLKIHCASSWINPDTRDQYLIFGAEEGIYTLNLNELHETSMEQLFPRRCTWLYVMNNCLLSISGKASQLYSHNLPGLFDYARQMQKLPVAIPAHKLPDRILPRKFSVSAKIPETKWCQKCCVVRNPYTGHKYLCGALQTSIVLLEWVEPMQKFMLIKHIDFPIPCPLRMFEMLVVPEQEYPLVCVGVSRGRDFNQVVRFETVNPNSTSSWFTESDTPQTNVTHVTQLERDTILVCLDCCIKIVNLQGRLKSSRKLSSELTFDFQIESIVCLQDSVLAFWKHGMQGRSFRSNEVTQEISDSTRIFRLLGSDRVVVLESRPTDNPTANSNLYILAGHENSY

[17] = target: T16, NEK5 (Homo sapiens, UniProt Q6P3R8); assay: kinome scan; format: binding; conditions: 10 µM
T16 construct: purchased DiscoverX (KINOMEscan)

[18] = target: T17, PDGFRB (Homo sapiens, UniProt P09619); assay: kinome scan; format: binding; conditions: 10 µM
T17 construct: purchased DiscoverX (KINOMEscan)
T17 sequence (P09619 33-1106): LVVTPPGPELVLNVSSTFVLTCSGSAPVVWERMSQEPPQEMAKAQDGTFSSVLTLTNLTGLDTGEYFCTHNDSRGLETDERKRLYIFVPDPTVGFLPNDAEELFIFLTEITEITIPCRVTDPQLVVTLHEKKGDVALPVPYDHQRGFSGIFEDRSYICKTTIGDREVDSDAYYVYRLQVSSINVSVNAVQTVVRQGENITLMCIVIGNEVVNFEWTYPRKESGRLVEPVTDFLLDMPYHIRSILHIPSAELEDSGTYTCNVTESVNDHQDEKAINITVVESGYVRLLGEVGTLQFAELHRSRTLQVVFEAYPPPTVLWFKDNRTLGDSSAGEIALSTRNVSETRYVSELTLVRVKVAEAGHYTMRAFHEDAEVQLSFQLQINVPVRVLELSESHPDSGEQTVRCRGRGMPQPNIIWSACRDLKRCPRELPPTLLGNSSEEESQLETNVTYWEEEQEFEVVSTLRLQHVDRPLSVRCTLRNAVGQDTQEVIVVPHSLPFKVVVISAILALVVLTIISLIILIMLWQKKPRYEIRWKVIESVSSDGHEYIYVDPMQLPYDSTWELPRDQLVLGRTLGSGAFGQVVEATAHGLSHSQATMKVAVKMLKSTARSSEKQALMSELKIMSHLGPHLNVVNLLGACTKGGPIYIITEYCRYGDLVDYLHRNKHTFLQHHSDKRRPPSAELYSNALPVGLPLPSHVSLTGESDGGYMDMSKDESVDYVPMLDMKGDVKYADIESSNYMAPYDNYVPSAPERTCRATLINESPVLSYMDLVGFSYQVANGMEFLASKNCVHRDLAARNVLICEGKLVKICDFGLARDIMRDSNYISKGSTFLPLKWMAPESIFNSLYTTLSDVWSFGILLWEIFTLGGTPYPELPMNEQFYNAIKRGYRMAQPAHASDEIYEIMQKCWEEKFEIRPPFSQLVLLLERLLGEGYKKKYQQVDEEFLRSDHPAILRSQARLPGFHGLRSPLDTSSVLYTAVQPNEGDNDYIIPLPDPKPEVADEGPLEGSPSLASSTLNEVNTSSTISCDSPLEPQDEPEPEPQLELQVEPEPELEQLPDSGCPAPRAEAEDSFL

[19] = target: T18, PIK3C2B (Homo sapiens, UniProt O00750); assay: kinome scan; format: binding; conditions: 10 µM
T18 construct: purchased DiscoverX (KINOMEscan)

[20] = target: T19, PIK3CA(C420R) (Homo sapiens, UniProt P42336, C420R); assay: kinome scan; format: binding; conditions: 10 µM
T19 construct: purchased DiscoverX (KINOMEscan)

[21] = target: T20, PIK3CG (Homo sapiens, UniProt P48736); assay: kinome scan; format: binding
T20 construct: purchased DiscoverX (KINOMEscan)
T20 sequence (P48736 whole entry): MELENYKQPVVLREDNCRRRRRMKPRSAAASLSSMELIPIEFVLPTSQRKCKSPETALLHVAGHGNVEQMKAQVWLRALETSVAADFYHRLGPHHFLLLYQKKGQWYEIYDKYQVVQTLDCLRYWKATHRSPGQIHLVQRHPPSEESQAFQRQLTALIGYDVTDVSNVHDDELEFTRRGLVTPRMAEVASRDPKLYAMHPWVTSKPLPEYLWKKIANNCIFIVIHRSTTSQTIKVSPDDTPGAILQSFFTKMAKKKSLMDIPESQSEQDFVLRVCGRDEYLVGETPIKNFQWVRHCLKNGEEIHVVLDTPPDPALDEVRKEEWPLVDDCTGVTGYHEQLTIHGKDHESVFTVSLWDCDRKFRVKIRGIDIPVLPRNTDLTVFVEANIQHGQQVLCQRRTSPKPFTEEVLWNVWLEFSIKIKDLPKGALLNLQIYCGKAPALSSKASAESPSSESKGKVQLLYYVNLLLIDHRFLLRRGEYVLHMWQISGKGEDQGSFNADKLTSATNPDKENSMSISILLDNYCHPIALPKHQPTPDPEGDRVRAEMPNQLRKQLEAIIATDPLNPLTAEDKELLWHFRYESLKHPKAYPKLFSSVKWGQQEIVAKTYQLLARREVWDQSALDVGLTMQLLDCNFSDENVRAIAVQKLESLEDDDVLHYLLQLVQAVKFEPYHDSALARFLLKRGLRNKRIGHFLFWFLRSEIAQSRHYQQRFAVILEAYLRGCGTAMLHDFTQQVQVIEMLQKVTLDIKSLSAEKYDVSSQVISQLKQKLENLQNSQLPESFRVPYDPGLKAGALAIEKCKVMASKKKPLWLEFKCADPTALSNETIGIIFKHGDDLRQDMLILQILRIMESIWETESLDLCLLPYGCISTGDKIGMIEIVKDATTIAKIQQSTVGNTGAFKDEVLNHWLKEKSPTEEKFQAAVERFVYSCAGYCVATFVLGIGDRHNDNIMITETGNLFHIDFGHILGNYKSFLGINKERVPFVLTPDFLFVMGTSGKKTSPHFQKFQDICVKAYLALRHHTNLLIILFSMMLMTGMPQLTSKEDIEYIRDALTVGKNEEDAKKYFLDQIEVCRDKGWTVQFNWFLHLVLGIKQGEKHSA

[22] = target: T21, PIM3 (Homo sapiens, UniProt Q86V86); assay: kinome scan; format: binding; conditions: 10 µM
T21 construct: purchased DiscoverX (KINOMEscan)

[23] = target: T22, PRKG1 (Homo sapiens, UniProt Q13976); assay: kinome scan; format: binding; conditions: 10 µM
T22 construct: purchased DiscoverX (KINOMEscan)

[24] = target: T23, PRKR (Homo sapiens, UniProt P19525); assay: kinome scan; format: binding; conditions: 10 µM
T23 construct: purchased DiscoverX (KINOMEscan)

[25] = target: T24, RET(V804L) (Homo sapiens, UniProt P07949, V804L); assay: kinome scan; format: binding; conditions: 10 µM
T24 construct: purchased DiscoverX (KINOMEscan)
T24 sequence (P07949 29-1114 V804L): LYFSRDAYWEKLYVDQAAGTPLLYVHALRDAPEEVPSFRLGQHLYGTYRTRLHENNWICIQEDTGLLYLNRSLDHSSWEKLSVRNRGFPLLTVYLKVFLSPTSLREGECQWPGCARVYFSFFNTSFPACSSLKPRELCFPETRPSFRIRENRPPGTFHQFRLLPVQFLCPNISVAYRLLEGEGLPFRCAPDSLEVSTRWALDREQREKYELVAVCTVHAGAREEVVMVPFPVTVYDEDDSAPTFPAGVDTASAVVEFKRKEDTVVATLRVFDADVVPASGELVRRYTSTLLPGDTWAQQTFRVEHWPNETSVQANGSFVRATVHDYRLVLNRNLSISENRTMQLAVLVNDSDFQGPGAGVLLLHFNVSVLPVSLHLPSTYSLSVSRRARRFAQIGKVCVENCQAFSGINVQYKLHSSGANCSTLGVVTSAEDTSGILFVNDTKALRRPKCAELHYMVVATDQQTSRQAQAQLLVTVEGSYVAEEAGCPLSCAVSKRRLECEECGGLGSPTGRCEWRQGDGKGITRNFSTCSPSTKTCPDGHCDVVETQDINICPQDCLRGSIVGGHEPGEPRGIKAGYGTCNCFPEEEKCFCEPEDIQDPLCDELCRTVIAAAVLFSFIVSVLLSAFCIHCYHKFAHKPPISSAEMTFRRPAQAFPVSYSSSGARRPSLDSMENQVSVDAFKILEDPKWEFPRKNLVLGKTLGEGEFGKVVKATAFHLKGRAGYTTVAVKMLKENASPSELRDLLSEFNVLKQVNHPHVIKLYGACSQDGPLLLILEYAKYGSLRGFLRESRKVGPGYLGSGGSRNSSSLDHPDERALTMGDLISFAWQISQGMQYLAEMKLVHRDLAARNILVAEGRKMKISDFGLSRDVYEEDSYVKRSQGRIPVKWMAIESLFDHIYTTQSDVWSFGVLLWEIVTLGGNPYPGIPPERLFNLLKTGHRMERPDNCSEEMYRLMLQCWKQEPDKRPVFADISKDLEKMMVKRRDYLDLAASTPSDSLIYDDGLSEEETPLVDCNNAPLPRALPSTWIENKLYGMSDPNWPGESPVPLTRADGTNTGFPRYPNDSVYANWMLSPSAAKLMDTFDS

[26] = target: T25, SGK3 (Homo sapiens, UniProt Q96BR1); assay: kinome scan; format: binding; conditions: 10 µM
T25 construct: purchased DiscoverX (KINOMEscan)

[27] = target: T26, STK16 (Homo sapiens, UniProt O75716); assay: kinome scan; format: binding; conditions: 10 µM
T26 construct: purchased DiscoverX (KINOMEscan)

[28] = target: T27, TIE2 (Homo sapiens, UniProt Q02763); assay: kinome scan; format: binding; conditions: 10 µM
T27 construct: purchased DiscoverX (KINOMEscan)

[29] = target: T28, TLK1 (Homo sapiens, UniProt Q9UKI8); assay: kinome scan; format: binding; conditions: 10 µM
T28 construct: purchased DiscoverX (KINOMEscan)

[30] = target: T29, TSSK1B (Homo sapiens, UniProt Q9BXA7); assay: kinome scan; format: binding; conditions: 10 µM
T29 construct: purchased DiscoverX (KINOMEscan)

[31] = target: T30, YES (Homo sapiens, UniProt P07947); assay: kinome scan; format: binding; conditions: 10 µM
T30 construct: purchased DiscoverX (KINOMEscan)

[32] = test system: Euchromatic histone-lysine N-methyltransferase 2; set-up: method as in PubChem Bioassay ID 504,332; conditions: reported activity, data mining; ref PubChem Bioassay ID 504,332; cited from earlier work

With Nc1ccc(N=Nc2ccccc2)c(N)n1 [phenazopyridine, 2,6-diamino-3-(phenylazo)pyridine] the “remaining binding (% of control)” value ([1]; 10 µM) was 18, the remaining binding at 10 µM ([1]; read-out: % Of control) was 18% and the kinase inhibition [2] was 98. The kinase inhibition [3] was 85, the kinase inhibition [4] was 99 and the kinase inhibition [5] was 100. For the same compound, the “remaining binding (% of control)” value [6] was 69, the kinase inhibition [7] was 86 and the kinase inhibition [8] was 93. The “remaining binding (% of control)” value [9] was 55, the “remaining binding (% of control)” value ([10]; FLT3(K663Q), 10 µM) was 21 and the remaining binding at 10 µM ([10]; FLT3 as printed (Table S4: FLT3(K663Q)), read-out: % Of control) was 21%. The kinase inhibition [11] was 100, the “remaining binding (% of control)” value [12] was 100 and the “remaining binding (% of control)” value [13] was 100. The “remaining binding (% of control)” value [14] was 100, the kinase inhibition [15] was 97 and the kinase inhibition [16] was 74. The kinase inhibition [17] was 100, the kinase inhibition [18] was 44 and the kinase inhibition [19] was 70. For the same compound, the kinase inhibition [20] was 100, the “percent of control (remaining binding)” value ([21]; 10 µM) was 27 and the remaining binding at 10 µM ([21]; read-out: Kinome scan (% of control at 10 µM)) was 27%. For the same compound, the kinase inhibition [22] was 100, the kinase inhibition [23] was 92 and the kinase inhibition [24] was 86. For the same compound, the kinase inhibition [25] was 100, the kinase inhibition [26] was 100 and the kinase inhibition [27] was 76. It also gave a kinase inhibition [28] of 98, a kinase inhibition [29] of 70 and a kinase inhibition [30] of 87. For the same compound, the kinase inhibition [31] was 100 and the Concentration [32] was 10 µM.
